Results: patent publication US6713269B2, “Methods for identifying potential therapeutic agents for treatment of osteoporosis using mitogenic indices” (co.don Aktiengesellschaft, priority 1995, dated 2004)

System: human osteoblast precursor cells
Assay: Cell proliferation rate under the influence of growth factors, using bromodeoxyuridine incorporation (BrdU incorporation)
Assay type: cell-based
Conditions: 54 h incubation + 18 h BrdU labelling, OD at 405 nm
Description: 3,000 osteoblastic cells from fractions t1 to 2 up to the second passage, recovered from osteoporotic patients (OP cells), per well of a 96-well microwell plate were incubated in the presence of 10% FCS and 10% inactivated human control serum in a cell culture medium (α-MEM and HAM-S F12 medium […]) for 48 h, 120 h and 192 h. In parallel, 3,000 osteoblastic cells from non-osteoporotic patients were incubated under the same conditions. The number of intact cells was determined by means of trypan blue staining and counting in a counting chamber. 4. Determination of the cell proliferation rate under the influence of the three growth factors 1, 2 and 3 using bromodeoxyuridine incorporation (BrdU incorporation) Growth factor 1 =TGF-β2
Cells from fraction 1 and/or 2 of each punched-out bone piece up to the 2nd passage were used in the proliferation test.
3 ×10^3 cells from the first and/or second passage per well of a 96-well plate and 200 μl of medium were used.
The cells were cultivated for three days under the conditions previously described and subsequently cultivated further for one day in medium with no serum until subconfluence was reached.
Thereafter, the three growth factors 1, 2 and 3 were added to the cells at four different final concentrations (100, 10, 1, and 0.1 ng/ml medium).
Cells in a medium containing 10% FKS and in a medium containing 5% Ultroser served as controls.
Triplets were set up for all concentrations and controls.
Six wells including cells, to which no bromodeoxyuridine had been added during the proliferation test served as blank controls.
After 54 hours of incubation with the growth factors, the proliferation test (5-Bromo-2′-deoxyuridine Labeling and Detection Kit III by Boehringer Mannheim) was initiated by adding 20 μl of labelling solution diluted 1:90 in 1% BSA medium and subsequent incubation for 18 hours.
The proliferation test was conducted according to the manufacturer's instructions.
Evaluation of the proliferation test was effected by measuring the optical density (OD) at 405 nm in an ELISA reader. After 60 minutes of color development, the absorbance was measured 12 times at intervals of 5 minutes.

In the case of “IGF I: protein growth factor 2 (insulin-like growth factor I)”, the Absorbance mean value (0.1 ng/ml medium) is reported as 0.151, the Absorbance mean value (1 ng/ml medium) is reported as 0.148 and the Absorbance mean value (10 ng/ml medium) is reported as 0.140. The Absorbance mean value (100 ng/ml medium) was 0.140.
With “IGF II: protein growth factor 3 (insulin-like growth factor II)” the Absorbance mean value (0.1 ng/ml medium) was 0.148, the Absorbance mean value (1 ng/ml medium) was 0.150 and the Absorbance mean value (10 ng/ml medium) was 0.139. The Absorbance mean value (100 ng/ml medium) was 0.140.
